Assay results reported in patent US6526316B2, “Iontophoresis method” (Hisamitsu Pharmaceutical Co., Inc., priority 1997, dated 2003).

Key:
[1] = Serum hPTH(1-34) concentration after repeated intradermal injection (Reference Example 1); type: in vivo, rat; settings: intradermal injection three times at 1 hour intervals, 1 μg/kg or 5 μg/kg per dose
Procedure: Female SD rats (12 weeks old) were ovariectomized and intradermally injected with an aqueous solution of hPTH(1-34) three times at 1 hour intervals at a one time administration dose of 1 μg/kg or 5 μg/kg. Concentration of hPTH(1-34) in serum of the rats was measured by radio immunoassay.

[2] = Serum hPTH(1-34) concentration during transdermal iontophoresis (Example 1); type: in vivo, rat; settings: male SD rats; iontophoresis anode patch 200 μg or 400 μg; 0.1 mA/cm^2, 30 min current and 45 min rest repeated three times; radio immunoassay; FIG. 3
Procedure: Hair on the abdominal skin of male, SD rats (7 weeks old) was shaved off. To the shaved part was attached the iontophoresis apparatus which comprises an anode patch containing 200 μg or 400 μg of hPTH(1-34) and a cathode patch without hPTH(1-34), as mentioned above. The apparatus was connected to an electric generator (50 kHz and 50% duty), and an electric current application using constant transport current (0.1 mA/cm^2) for 30 minutes and a 45-minute rest interval (corresponding to blood concentration of one pulse) was repeated three times. During the repetitions, blood was taken periodically, and concentration of hPTH(1-34) in serum was measured by radio immunoassay.

CC[C@H](C)[C@H](NC(=O)[C@H](CCC(=O)O)NC(=O)[C@H](CO)NC(=O)[C@@H](NC(=O)[C@@H](N)CO)C(C)C)C(=O)N[C@@H](CCC(N)=O)C(=O)N[C@@H](CC(C)C)C(=O)N[C@@H](CCSC)C(=O)N[C@@H](Cc1cnc[nH]1)C(=O)N[C@@H](CC(N)=O)C(=O)N[C@@H](CC(C)C)C(=O)NCC(=O)N[C@@H](CCCCN)C(=O)N[C@@H](Cc1cnc[nH]1)C(=O)N[C@@H](CC(C)C)C(=O)N[C@@H](CC(N)=O)C(=O)N[C@@H](CO)C(=O)N[C@@H](CCSC)C(=O)N[C@@H](CCC(=O)O)C(=O)N[C@@H](CCCN=C(N)N)C(=O)N[C@H](C(=O)N[C@@H](CCC(=O)O)C(=O)N[C@@H](Cc1c[nH]c2ccccc12)C(=O)N[C@@H](CC(C)C)C(=O)N[C@@H](CCCN=C(N)N)C(=O)N[C@@H](CCCCN)C(=O)N[C@@H](CCCCN)C(=O)N[C@@H](CC(C)C)C(=O)N[C@@H](CCC(N)=O)C(=O)N[C@@H](CC(=O)O)C(=O)N[C@H](C(=O)N[C@@H](Cc1cnc[nH]1)C(=O)N[C@@H](CC(N)=O)C(=O)N[C@@H](Cc1ccccc1)C(=O)O)C(C)C)C(C)C [hPTH(1-34)]
maximum blood concentrations vs dose [1]: proportional to the injected doses | blood concentration profile of hPTH(1-34) in serum ([1]; ovariectomized female SD rats, radio immunoassay, FIG. 1): three sharp pulses | blood concentration profile of hPTH(1-34) in serum [2]: three sharp peaks
